Drawing on ChEMBL document CHEMBL1932998, “Design, synthesis and evaluation of polar head group containing 2-keto-oxazole inhibitors of FAAH” (Bioorg Med Chem, 2012), this text covers Activity, inhibition and IC50 for 37 molecules.

For experiment [1], the target named is T1, Fatty-acid amide hydrolase 1 (Rattus norvegicus) (UniProt P97612).
T1 sequence (whole entry): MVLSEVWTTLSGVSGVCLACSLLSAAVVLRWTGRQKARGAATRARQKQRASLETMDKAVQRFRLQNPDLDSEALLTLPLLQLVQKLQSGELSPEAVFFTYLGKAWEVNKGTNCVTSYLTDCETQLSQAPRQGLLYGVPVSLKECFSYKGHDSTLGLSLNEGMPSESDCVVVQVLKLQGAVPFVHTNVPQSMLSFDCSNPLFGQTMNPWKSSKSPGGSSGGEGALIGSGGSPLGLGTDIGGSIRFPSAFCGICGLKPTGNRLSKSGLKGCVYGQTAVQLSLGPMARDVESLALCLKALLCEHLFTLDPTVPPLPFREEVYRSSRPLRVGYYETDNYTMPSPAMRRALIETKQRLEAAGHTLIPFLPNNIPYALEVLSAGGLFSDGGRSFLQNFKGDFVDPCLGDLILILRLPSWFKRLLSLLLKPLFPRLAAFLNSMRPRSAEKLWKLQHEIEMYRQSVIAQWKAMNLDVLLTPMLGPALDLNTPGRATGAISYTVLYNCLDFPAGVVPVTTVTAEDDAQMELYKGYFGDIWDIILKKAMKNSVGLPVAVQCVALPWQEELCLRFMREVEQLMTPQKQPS
The experiment can be described thus: Inhibition of Sprague-Dawley rat brain FAAH assessed as residual activity at 10 uM after 60 mins by reverse phase HPLC-based fluorescence method.

Experiment [2] deals with T1, Fatty-acid amide hydrolase 1 (Rattus norvegicus). The experiment can be described thus: (§1) Inhibition of Sprague-Dawley rat brain microsome FAAH assessed as reduction in 4-pyren-1-ylbutanoic acid release after 60 mins by reverse phase HPLC-based fluorescence method.
The target of experiment [3] is Acyl-protein thioesterase 2 (Homo sapiens) (UniProt O95372). As to the kind of experiment: Inhibition of APT2 at 50 uM.
Acyl-protein thioesterase 2 (Homo sapiens), sequence (O95372 whole entry): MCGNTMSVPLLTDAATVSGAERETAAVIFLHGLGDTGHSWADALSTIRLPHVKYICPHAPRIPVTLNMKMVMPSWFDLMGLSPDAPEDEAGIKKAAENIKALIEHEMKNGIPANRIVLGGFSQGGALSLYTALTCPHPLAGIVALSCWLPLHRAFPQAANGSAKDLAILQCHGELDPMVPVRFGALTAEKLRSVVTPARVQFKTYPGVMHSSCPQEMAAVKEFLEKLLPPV
In experiment [4] the target is Acyl-protein thioesterase 1 (Homo sapiens) (UniProt O75608). As to the kind of experiment: Inhibition of APT1 at 50 uM.
Acyl-protein thioesterase 1 (Homo sapiens), sequence (O75608 whole entry): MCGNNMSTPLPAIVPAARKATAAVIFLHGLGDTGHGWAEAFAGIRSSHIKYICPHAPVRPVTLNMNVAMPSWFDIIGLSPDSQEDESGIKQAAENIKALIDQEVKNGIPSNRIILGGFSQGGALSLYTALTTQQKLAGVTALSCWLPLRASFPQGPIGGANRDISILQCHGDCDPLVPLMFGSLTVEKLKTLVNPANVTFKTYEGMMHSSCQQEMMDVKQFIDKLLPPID
Experiment [5] in a line: Inhibition of cPLA2alpha at 1 uM.
Experiment [6] concerns the target T2, Fatty-acid amide hydrolase 1 (Rattus norvegicus, UniProt P97612).
T2 sequence (P97612 whole entry): T1 sequence (whole entry)
The description is as §1.

SMILES strings stand for the structures. Active and inactive are the calls of the source. The calls are words filed in the database; no cut-off is given here.

For the molecule `CCCCCCCC(=O)c1ncc(CCCS(=O)(=O)CCC[N+](C)(C)C)o1`, the Activity in experiment [1] came out at 53%. Same read-out and setting: next, `CCCCCCCC(=O)c1ncc(CCCCS(=O)(=O)CCC[N+](C)(C)C)o1`: 83%; `CCCCCCCC(=O)c1ncc(CCSCCCN(C)C)o1`: 34%.

Regarding `CCCCCCCCCCCC(=O)c1ncc(CCCSCCCN(C)C)o1`, in experiment [2], the inhibition result is “inactive”. Further, the Activity in experiment [1] worked out at 40%.

In the case of `CCCCCCCCCCCC(=O)c1ncc(CCCS(=O)(=O)CCCN(C)C)o1`, the inhibition entry in experiment [3], in experiment [4] and in experiment [5] was “inactive” each time. Also, the IC50 in experiment [6] was 290 nM. For the same molecule, the Activity in experiment [1] turned out to be 2%. Consider `CCCCCCCCCCCC(=O)c1ncc(CCCCS(=O)(=O)CCCN(C)C)o1`, for which the inhibition entry in experiment [2] was “inactive”. In addition, the Activity in experiment [1] turned out to be 32%. `CCCCCCCCCCCC(=O)c1ncc(CCCCCCS(=O)(=O)CCCN(C)C)o1`: the inhibition result in experiment [2] is “inactive”. The Activity in experiment [1] stood at 51%. `CCCCCCCC(=O)c1ncc(CCSCCC[N+](C)(C)C)o1`: the outcome in experiment [1] was inactive.

Consider `Cc1nc(-c2ccccc2)c(-c2ccccc2)n1CCCCCCNC(=O)Oc1ccccc1`, for which the IC50 in experiment [6] was 340 nM. For `CCCCCCCCCCCC(=O)c1ncc(CCCCCCSCCC[N+](C)(C)C)o1`, the inhibition entry in experiment [2] is “inactive”. Further, the Activity in experiment [1] turned out to be 71%.

For `CCCCCCCCCCCC(=O)c1ncc(CCCCCS(=O)(=O)CCCN(C)C)o1`, in experiment [2], the inhibition entry is “inactive”. Further, the Activity in experiment [1] stood at 53%. For `CCCCCCCCCCCC(=O)c1ncc(CCCCSCCC[N+](C)(C)C)o1` the same measures were “inactive” and 78%. `CCCCCCCC(=O)c1ncc(CCCCS(=O)(=O)CCCN(C)C)o1`: the Activity in experiment [1] came to 59%. Take `CCCCCCCC(=O)c1ncc(CCCCSCCCN(C)C)o1`: the Activity in experiment [1] worked out at 48%.

As for `CCCCCCCCCCCC(=O)c1ncc(CCSCCCN(C)C)o1`, the inhibition entry in experiment [2] is “inactive”. The Activity in experiment [1] is 27%. Take `CCCCCCCCCCCC(=O)c1ncc(CCCCCSCCCN(C)C)o1`: in experiment [2], the inhibition entry was “inactive”. Also, the Activity in experiment [1] was found to be 64%. `CCCCCCCC(=O)c1ncc(CCCS(=O)(=O)CCCN(C)C)o1`: the half-inhibitory concentration (IC50) in experiment [6] amounted to 2400 nM. The Activity in experiment [1] is 22%. Take `CCCCCCCC(=O)c1ncc(CCCSCCCN(C)C)o1`: the Activity in experiment [1] stood at 64%.

Regarding `CCCCCCCC(=O)c1ncc(CCCCCCSCCC[N+](C)(C)C)o1`, the Activity in experiment [1] stood at 82%. For the molecule `CCCCCCCCCCCC(=O)c1ncc(CCCS(=O)(=O)CCC[N+](C)(C)C)o1`, the IC50 in experiment [6] worked out at 1900 nM. The Activity in experiment [1] turned out to be 13%. `CCCCCCCC(=O)c1ncc(CCCCCS(=O)(=O)CCCN(C)C)o1`: the Activity in experiment [1] is 73%. On the same count and under the same terms, next, `CCCCCCCC(=O)c1ncc(CCCCCCSCCCN(C)C)o1`: 78%. Turning to `CCCCCCCCCCCC(=O)c1ncc(CCCCSCCCN(C)C)o1`, the inhibition result in experiment [2] is “inactive”. In addition, the Activity in experiment [1] is 49%. On to `O=C(CCCCCc1ccccc1)c1nc2ncccc2o1`, for which, in experiment [6], the IC50 came out at 2.9 nM.

As for `CCCCCCCC(=O)c1ncc(CCCCCSCCCN(C)C)o1`, the Activity in experiment [1] worked out at 78%. Same read-out and setting: the same measure for `CCCCCCCC(=O)c1ncc(CCCCCS(=O)(=O)CCC[N+](C)(C)C)o1`: 70%.

For the molecule `CCCCCCCC(=O)c1ncc(CCS(=O)(=O)CCCN(C)C)o1`, the IC50 in experiment [6] was 2000 nM. The Activity in experiment [1] stood at 23%.

Take `CCCCCCCCCCCC(=O)c1ncc(CCS(=O)(=O)CCC[N+](C)(C)C)o1`: the IC50 in experiment [6] stood at 1400 nM. Besides, the Activity in experiment [1] amounted to 11%. For `CCCCCCCCCCCC(=O)c1ncc(CCCCCCSCCCN(C)C)o1`, the inhibition entry in experiment [2] is “inactive”. Also, the Activity in experiment [1] came out at 72%. The corresponding values for `CCCCCCCCCCCC(=O)c1ncc(CCCCCCS(=O)(=O)CCC[N+](C)(C)C)o1` are “inactive” and 31%.

With `CCCCCCCC(=O)c1ncc(CCCCCCS(=O)(=O)CCCN(C)C)o1`, in experiment [1], the Activity stood at 62%. Take `CCCCCCCCCCCC(=O)c1ncc(CCSCCC[N+](C)(C)C)o1`: the inhibition entry in experiment [2] was “inactive”. In experiment [1], the Activity stood at 78%. The corresponding values for `CCCCCCCCCCCC(=O)c1ncc(CCCCS(=O)(=O)CCC[N+](C)(C)C)o1` are “inactive” and 49%.

Turning to `CCCCCCCCCCCC(=O)c1ncc(CCS(=O)(=O)CCCN(C)C)o1`, in experiment [6], the IC50 was determined as 370 nM. For the same molecule, the Activity in experiment [1] worked out at 3%. `CCCCCCCCCCCC(=O)c1ncc(CCCCCS(=O)(=O)CCC[N+](C)(C)C)o1`: the inhibition entry in experiment [2] is “inactive”. In experiment [1], the Activity stood at 57%. Take `CCCCCCCC(=O)c1ncc(CCS(=O)(=O)CCC[N+](C)(C)C)o1`: the Activity in experiment [1] came out at 61%.

As for `CCCCCCCC(=O)c1ncc(CCCCSCCC[N+](C)(C)C)o1`, the Activity in experiment [1] was 68%.
